Laboratory results taken from publication PMC5511861, “DS16570511 is a small-molecule inhibitor of the mitochondrial calcium uniporter” (Cell Death Discovery, 2017).

Assays:
[1] = tested on: Hela cells; design: method as in PMID 17471180; conditions: cited from earlier work
[2] = tested on: Ca2+ uptake of rat heart mitochondria; test: Ca2+ uptake assay using isolated rat heart mitochondria (atomic absorbance spectrometer); type: biochemical; conditions: 100 μM CaCl2; read-out: IC50, inhibition of Ca2+ uptake of rat heart mitochondria
Procedure: (§1) We then asked whether DS16570511 inhibits Ca^2+ uptake in isolated mitochondria from animal heart. An atomic absorbance spectrometer-based detection method was employed to analyze intramitochondrial Ca^2+ levels. We prepared freshly isolated mitochondria from pig heart, and the mitochondria were incubated with 100 μM CaCl2.
(§2) Figure 3 DS16570511 inhibits Ca^2+ uptake in isolated heart mitochondria. (a) Effect of RuR on Ca^2+ uptake of pig heart mitochondria. […] Data are mean with S.E.M. from three independent samples. (b) Inhibition rate of RuR or DS16570511 on Ca^2+ uptake of pig heart mitochondria. Inhibition 0 or 100% is defined as a value of Ca^2+-untreated mitochondria or Ca^2+-treated mitochondria, respectively. Data are mean with S.E.M. from three independent samples. (c) Inhibition rate of RuR or DS16570511 on Ca^2+ uptake of rat heart mitochondria. Data are mean with S.E.M./variation from three or two independent samples for DS16570511 or RuR, respectively.
Mitochondria were isolated by using the mitochondria isolation kit and then dissolved in the swelling buffer. The protein concentration of the mitochondrial solution was 5 mg/ml. […] The solution was then diluted by water, and Ca^2+ concentration of the solution was measured by atomic absorbance spectrometer (Hitachi High-Technologies Corporation, Z-2710, Tokyo, Japan).

[3] = tested on: recombinant MCU multimers; design: method as in PMID 26285678; conditions: lipid bilayer; cited from earlier work
[4] = tested on: Ca2+ uptake of pig heart mitochondria; test: Ca2+ uptake assay using isolated pig heart mitochondria (atomic absorbance spectrometer); type: biochemical; conditions: 100 μM CaCl2
Procedure: as §1
as §2, with “(a)” for “Figure 3 DS16570511 inhibits Ca^2+ uptake in isolated heart mitochondria. (a)”
Mitochondria were isolated by using the mitochondria isolation kit and then dissolved in the swelling buffer. The protein concentration of the mitochondrial solution was 5 mg/ml. Thirty minutes after application of CaCl2 (final concentration of 100 μM) to the solution, the mitochondria were collected by centrifugation (3000 g) at 4 °C. The pellets were resuspended in the swelling buffer containing 1 μM RuR. After collection of the mitochondria by centrifugation (3000 g), the pellets were dried and dissolved by 40 μl of sulfuric acid at 95 °C.

[5] = tested on: cultured myocytes; design: method as in PMID 22425903; conditions: cited from earlier work
[6] = tested on: membrane potential of pig heart mitochondria; test: Mitochondrial membrane potential assay (JC-10) in pig heart mitochondria; type: biochemical; conditions: JC-10, 5 min incubation
Source text: Next we analyzed the mechanism of action of DS16570511. The previous studies implicated two possible inhibitory mechanisms for the mitochondrial Ca^2+ uptake: (1) direct blockade of the calcium uniporter and (2) disruption of the membrane potential.[20],[21] Mitochondrial Ca^2+ uptake is mediated by electrical potential across the mitochondrial inner membrane, which is generated by the oxidative phosphorylation system. […] To examine effects on the mitochondrial membrane potential, fluorescent indicator JC-10 was used in mitochondria from pig heart.
(a) Effect of FCCP on Ca^2+ uptake of pig heart mitochondria. […] Relative membrane potential 0 or 100% is defined as value of 1 μM FCCP-treated mitochondria or vehicle-treated mitochondria, respectively. Data are mean with S.E.M. from three (a) or four (b) independent samples.
Pig heart mitochondria were prepared as described above and suspended in the swelling buffer containing 1 μM JC-10. The protein concentration of the solution was 5 mg/ml. Five minutes after incubation of the mitochondria with DS16570511 at room temperature, fluorescence intensities were measured by a FlexStation 3 (Molecular Devices, LLC, Sunnyvale, CA, USA) using the green channel (excitation/emission wavelength: 485/538 nm) or the red channel (excitation/emission wavelength: 485/612 nm).

[7] = target: T1, mitochondrial calcium uniporter (Homo sapiens, UniProt Q8NE86); test: Ca2+ uptake of isolated mitochondria from HEK293A cells (aequorin luminescence); type: biochemical; design: isolated mitochondria from HEK293A cells were used; endogenous in cells; host or cells: mitochondria isolated from HEK293A cells stably expressing mitochondria-targeted aequorin
T1 sequence (Q8NE86 51-351): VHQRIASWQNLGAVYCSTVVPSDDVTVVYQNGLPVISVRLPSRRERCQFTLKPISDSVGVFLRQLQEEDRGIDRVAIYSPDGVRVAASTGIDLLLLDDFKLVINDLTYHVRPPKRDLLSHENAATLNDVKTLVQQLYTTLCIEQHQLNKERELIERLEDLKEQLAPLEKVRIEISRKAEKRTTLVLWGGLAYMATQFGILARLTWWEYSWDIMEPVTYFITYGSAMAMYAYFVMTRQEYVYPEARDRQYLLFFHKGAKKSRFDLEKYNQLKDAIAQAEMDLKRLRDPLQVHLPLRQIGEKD
T1 sequence (Q9H4I9 48-107 partner limits assumed): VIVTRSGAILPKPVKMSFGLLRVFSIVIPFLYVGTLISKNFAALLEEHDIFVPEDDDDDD
Procedure: Mitochondrial Ca^2+ uptake activity is regulated by cytosolic protein kinase signaling,[19] raising the possibility that HTS hits contained indirect inhibitors of the uniporter, such as inhibitors of cytosolic signaling. To examine the direct inhibitory effect of the compounds on the mitochondrial Ca^2+ uptake, isolated mitochondria from HEK293A cells were used. Ca^2+ uptake of the isolated mitochondria was observed as a rapid increase in the luminescence level after application of 100 μM Ca^2+ (Figure 2a).
Figure 2 DS16570511 inhibits Ca^2+ uptake in isolated mitochondria from HEK293A cells. (a) Representative raw data of Ca^2+ uptake in isolated mitochondria. (b) Effect of DS16570511 or Ru360 on mitochondrial Ca^2+ uptake. The area under the curve of temporal aequorin activities is used for calculation of inhibitory activities. Inhibition 0 or 100% is defined as a value of […], respectively. Data are mean with S.E.M. from three independent samples.
To monitor Ca^2+ uptake activity of isolated mitochondria, mitochondria were prepared from the cells (1×10^8 cells) stably expressing mitochondria-targeted aequorin by using a mitochondria isolation kit. […] The luminescence levels were detected as described above.

For `N=C(N)SCCc1ccc(OCc2ccc([N+](=O)[O-])cc2)cc1` [KB-R7943], the “effect on agonist-induced mitochondrial Ca2+ influx” value [1] is given as “inhibit”.

For `N.N.N.N.N.N.N.N.N.N.N.N.N.N.[Cl-].[Cl-].[Cl-].[Cl-].[Cl-].[Cl-].[O-2].[O-2].[Ru+3].[Ru+3].[Ru+4]` [RuR, Ruthenium Red], the IC50 [2] is listed as 100 nM, the “effect on Ca2+ channel activity mediated by recombinant MCU multimers” value [3] is listed as “inhibited” and the “effect on Ca2+ uptake activity of isolated pig heart mitochondria (in words)” value [4] is listed as “fully blocked”. The IC50 ([4]; read-out: IC50, inhibition of Ca2+ uptake of pig heart mitochondria) was 30 nM.

For `CS(=O)(=O)O.CS(=O)(=O)O.O=S1(=O)CCN(Cc2cc(NCC3CCOCC3)c3[nH]c(-c4ccccc4)cc3c2)CC1` [NecroX-5], the “effect on Ca2+ accumulation” value [5] is listed as “attenuate”.

For `N#CC(C#N)=NNc1ccc(OC(F)(F)F)cc1` [FCCP, carbonyl cyanide-p-trifluoromethoxyphenylhydrazone], the “effect on mitochondrial membrane potential” value [6] was “disruption of the potential in a dose-dependent manner”.

With `N.N.N.N.N.N.N.N.O=C[O-].O=C[O-].[O-2].[Ru+3].[Ru+4]` [Ru360, Ruthenium 360, reference compound] the IC50 [7] was 20 nM and the “effect on mitochondrial membrane potential” value [6] was “no effect”.
